The values below come from ChEMBL document CHEMBL1201862, “PubChem BioAssay data set” (2004).

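Where inhibition never reached the appropriate level, the endpoint shown equals the highest concentration tested. Otherwise, values were interpolated linearly from a five-concentration, 48-hour dose response in 96-well plates. Here, GI50 denotes the concentration required for 50% inhibition of growth.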 Calls of active or inactive are those of the source. Cut-off read from the data, not from the text of the source: active = GI50 up to about 1.1 µM and inactive = higher.

Test systems include A498; COLO 205; EKVX; HCT-15; HT-29; LOX IMVI; NCI-H226; NCI-H23; NCI-H522; OVCAR-3; OVCAR-4; OVCAR-8; RXF 393; SF-268; SF-295; SK-MEL-2; SK-MEL-5; UACC-62; HCT-116; SN12C.
Holding throughout (test): growth of human tumour cells (NCI), 48 h

`CN(CCO)Cc1ncccc1O`: the GI50 in the experiment on A498 is > 100 µM (inactive); in the experiment with COLO 205, > 100 µM (inactive); in the experiment on EKVX, > 100 µM (inactive); with HCT-15 it was greater than 100 µM; in the experiment with HT-29 it was > 100 µM (inactive); in the experiment on LOX IMVI it was > 100 µM (inactive). For the same molecule, the GI50 with NCI-H226, in the experiment with NCI-H23, in the experiment with NCI-H522, with OVCAR-3, in the experiment on OVCAR-4 and with OVCAR-8 was > 100 µM (inactive) throughout. Moreover, the GI50 in the experiment with RXF 393, in the experiment with SF-268, in the experiment on SF-295, in the experiment with SK-MEL-2, in the experiment on SK-MEL-5 and in the experiment with UACC-62 was > 100 µM (inactive) each time.
For `C#CC(C)(C)OCCCCOc1cc(O)c2c(=O)c3ccccc3n(C)c2c1`, the GI50 is 91 µM (inactive) in the experiment on A498; 23.7 µM (inactive) in the experiment on COLO 205; > 100 µM (inactive) in the experiment with EKVX; > 100 µM (inactive) in the experiment with HCT-116; greater than 100 µM in the experiment on HCT-15; 21.7 µM (inactive) in the experiment with HT-29. The GI50 in the experiment on LOX IMVI, in the experiment with NCI-H226, in the experiment on NCI-H23, with NCI-H522, with OVCAR-3 and with OVCAR-4 was > 100 µM (inactive) each time. The GI50 in the experiment with OVCAR-8 was > 100 µM (inactive); in the experiment on RXF 393 it was > 100 µM (inactive); in the experiment with SF-268, > 100 µM (inactive); in the experiment on SF-295 it was > 100 µM (inactive); in the experiment with SK-MEL-2, > 100 µM (inactive); with SK-MEL-5, 66.5 µM (inactive). Moreover, the GI50 in the experiment on SN12C and with UACC-62 was > 100 µM (inactive) throughout.
For the molecule `C=CCCN1CCc2c([nH]c3ccccc23)C1C(=O)O` (configuration not stated), the GI50 in the experiment on A498, with COLO 205, with EKVX, in the experiment with HCT-116, in the experiment on HT-29 and in the experiment with LOX IMVI was > 100 µM (inactive) in each case. In addition, the GI50 with NCI-H226 was 89.7 µM (inactive); in the experiment on NCI-H23 it was 78 µM (inactive); in the experiment with NCI-H522 it was > 100 µM (inactive); in the experiment on OVCAR-3 it was > 100 µM (inactive); in the experiment with OVCAR-4 it was > 100 µM (inactive); in the experiment with RXF 393, > 100 µM (inactive). Further, the GI50 in the experiment on SF-268 was 78.3 µM (inactive); in the experiment with SF-295 it was > 100 µM (inactive); in the experiment on SK-MEL-2, > 100 µM (inactive); in the experiment on SK-MEL-5, > 100 µM (inactive); in the experiment with SN12C, > 100 µM (inactive); in the experiment with UACC-62, > 100 µM (inactive).
In the case of `COc1cccc(OCC(=N/NC(=O)c2ccncc2)/N=C/c2ccncc2)c1`, the GI50 in the experiment on A498 is > 100 µM (inactive); in the experiment on COLO 205, > 100 µM (inactive); in the experiment on EKVX it was > 100 µM (inactive); in the experiment on HCT-116, > 100 µM (inactive); with HCT-15 it was greater than 100 µM; in the experiment with HT-29, > 100 µM (inactive). For the same molecule, the GI50 in the experiment with LOX IMVI, in the experiment with NCI-H226, in the experiment on NCI-H23, in the experiment on NCI-H522, with OVCAR-3 and in the experiment on OVCAR-4 was > 100 µM (inactive) each time. Besides, the GI50 in the experiment with OVCAR-8 is > 100 µM (inactive); in the experiment with RXF 393 it was 52 µM (inactive); in the experiment on SF-268, > 100 µM (inactive); in the experiment with SF-295, > 100 µM (inactive); with SK-MEL-2, > 100 µM (inactive); with SN12C, > 100 µM (inactive). In addition, the GI50 with UACC-62 was > 100 µM (inactive).
In the case of `CC(=O)OCc1c(C)c2ccccc2n1C(C)=O`, the GI50 in the experiment with A498 was 38.3 µM (inactive); in the experiment on COLO 205 it was 44.2 µM (inactive); with EKVX it was > 100 µM (inactive); in the experiment with HCT-116, 44.5 µM (inactive); in the experiment on HT-29 it was 59.2 µM (inactive); with LOX IMVI, 45 µM (inactive). The GI50 in the experiment on NCI-H226 was 87.5 µM (inactive); in the experiment on NCI-H23, 55 µM (inactive); in the experiment with NCI-H522, 20 µM (inactive); in the experiment with OVCAR-3 it was 26.7 µM (inactive); with OVCAR-4, 32.1 µM (inactive); with OVCAR-8, 49 µM (inactive). In addition, the GI50 in the experiment on RXF 393 was 33 µM (inactive); with SF-268, 43.6 µM (inactive); with SF-295, 56.9 µM (inactive); in the experiment on SK-MEL-2, 21 µM (inactive); with SK-MEL-5, 35.2 µM (inactive); with SN12C, 35.7 µM (inactive). In the experiment with UACC-62, the GI50 was 36.3 µM (inactive).
For the molecule `CCOC(=O)/C=C/n1c2ccccc2c(=O)c2ccccc21`, the GI50 is > 100 µM (inactive) in the experiment on A498; > 100 µM (inactive) in the experiment on COLO 205; > 100 µM (inactive) in the experiment on EKVX; > 100 µM (inactive) in the experiment on HCT-116; greater than 100 µM with HCT-15; > 100 µM (inactive) in the experiment with HT-29. Further, the GI50 in the experiment on LOX IMVI, in the experiment on NCI-H226, with NCI-H23, with NCI-H522, in the experiment on OVCAR-3 and in the experiment with OVCAR-4 was > 100 µM (inactive) throughout. Also, the GI50 in the experiment with OVCAR-8, with RXF 393, with SF-268, in the experiment on SF-295, in the experiment with SK-MEL-2 and in the experiment with SN12C was > 100 µM (inactive) each time. Also, in the experiment on UACC-62, the GI50 was > 100 µM (inactive).
For the molecule `Cc1cc(C(=O)NCCN(C)C)c2nc3ccccc3cc2c1`, the GI50 in the experiment with A498 was 1.15 µM (inactive); in the experiment on COLO 205 it was 1.1 µM (active); in the experiment with EKVX, 0.594 µM (active); with HCT-116 it was 0.904 µM (active); in the experiment with HCT-15 it was 1.65 µM; in the experiment on HT-29, 1.13 µM (inactive). The GI50 in the experiment with LOX IMVI is 1.27 µM (inactive); in the experiment on NCI-H226, 1.17 µM (inactive); with NCI-H23, 2.3 µM (inactive); with OVCAR-3, 2.38 µM (inactive); with OVCAR-4, 3.02 µM (inactive); in the experiment with OVCAR-8, 1.25 µM (inactive). In addition, the GI50 in the experiment on RXF 393 was 1.63 µM (inactive); in the experiment with SF-268, 2.77 µM (inactive); in the experiment with SF-295, 1.27 µM (inactive); in the experiment on SK-MEL-2 it was 2.69 µM (inactive); in the experiment on SK-MEL-5 it was 1.64 µM (inactive); in the experiment on SN12C, 1.59 µM (inactive). Further, the GI50 with UACC-62 was 1.52 µM (inactive).
Consider `O=C(/C=C/c1ccc(OCc2ccccc2)cc1)NCc1ccc(C(=O)NCc2ccccc2)cc1`, for which the GI50 in the experiment with A498 is > 100 µM (inactive); in the experiment on COLO 205, > 100 µM (inactive); in the experiment on EKVX it was > 100 µM (inactive); in the experiment with HCT-116 it was > 100 µM (inactive); with HCT-15, greater than 100 µM; in the experiment with HT-29, > 100 µM (inactive). For the same molecule, the GI50 in the experiment with LOX IMVI, in the experiment with NCI-H226, in the experiment on NCI-H23, in the experiment on NCI-H522, in the experiment on OVCAR-3 and with OVCAR-4 was > 100 µM (inactive) in each case. In addition, the GI50 in the experiment with OVCAR-8 was > 100 µM (inactive); in the experiment with RXF 393, 0.687 µM (active); with SF-268, > 100 µM (inactive); in the experiment on SF-295 it was > 100 µM (inactive); in the experiment with SK-MEL-2, > 100 µM (inactive); in the experiment on SK-MEL-5, > 100 µM (inactive). The GI50 in the experiment on SN12C and in the experiment with UACC-62 was > 100 µM (inactive) throughout.
